Source: ChEMBL document CHEMBL6078630, “Design, synthesis, and bioactivity investigation of novel cyclic lipopeptide antibiotics targeting top-priority multidrug-resistant gram-negative bacteria” (Eur J Med Chem, 2024)
In brackets after ≈: the same amount, converted by molar mass. Bridge positions count the residues as written; N and C are the ends. Square brackets hold non-standard residues; d marks the D form. Peptide text beside a SMILES is read from it. * marks the point of attachment. Heptanoyl(6-Me) = CC(C)CCCCC(=O)*; Orn = NCCC[C@H](N)C(=O)O; Dab = NCC[C@H](N)C(=O)O; Dap = NC[C@H](N)C(=O)O

Assays:
Acinetobacter baumannii [1] = experiment: Antibacterial activity against carbapenem-sensitive Acinetobacter baumannii clinical isolate 19-1 assessed as inhibition of bacterial growth incubated for 16 to 20 hrs by CLSI protocol based broth microdilution method; type: functional; details: time 16-20 hrs
Escherichia coli [2] = experiment: Antibacterial activity against carbapenem-resistant Escherichia coli ATCC BAA-2340 assessed as inhibition of bacterial growth incubated for 16 to 20 hrs by CLSI protocol based broth microdilution method; type: functional; details: time 16-20 hrs
Klebsiella pneumoniae [3] = experiment: Antibacterial activity against carbapenem-resistant Klebsiella pneumoniae clinical isolate KPN+19-15 assessed as inhibition of bacterial growth incubated for 16 to 20 hrs by CLSI protocol based broth microdilution method; type: functional; details: time 16-20 hrs
Pseudomonas aeruginosa [4] = experiment: Antibacterial activity against Pseudomonas aeruginosa ATCC 27853 assessed as inhibition of bacterial growth incubated for 16 to 20 hrs by CLSI protocol based broth microdilution method; type: functional; details: time 16-20 hrs
Pseudomonas aeruginosa [5] = experiment: Antibacterial activity against carbapenem-resistant Pseudomonas aeruginosa clinical isolate 19-3 assessed as inhibition of bacterial growth incubated for 16 to 20 hrs by CLSI protocol based broth microdilution method; type: functional; details: time 16-20 hrs
Escherichia coli [6] = experiment: Antibacterial activity against Escherichia coli ATCC BAA-2523 assessed as inhibition of bacterial growth incubated for 16 to 20 hrs by CLSI protocol based broth microdilution method; type: functional; details: time 16-20 hrs
[7] = Renal cytotoxicity against HK-2 cells incubated for 72 hrs by CCK8 assay; type: toxicity, cell-based; details: human
Klebsiella pneumoniae [8] = experiment: Antibacterial activity against carbapenem-resistant Klebsiella pneumoniae ATCC BAA-1705 assessed as inhibition of bacterial growth incubated for 16 to 20 hrs by CLSI protocol based broth microdilution method; type: functional; details: time 16-20 hrs
Acinetobacter baumannii [9] = experiment: Antibacterial activity against Acinetobacter baumannii NCTC 13304 (OXA-27) assessed as inhibition of bacterial growth incubated for 16 to 20 hrs by CLSI protocol based broth microdilution method; type: functional; details: time 16-20 hrs

Structure (SMILES)	MIC (Acinetobacter baumannii [1]) [µg/mL]	MIC (Escherichia coli [2]) [µg/mL]	MIC (Klebsiella pneumoniae [3]) [µg/mL]	MIC (Pseudomonas aeruginosa [4]) [µg/mL]	MIC (Pseudomonas aeruginosa [5]) [µg/mL]	MIC (Escherichia coli [6]) [µg/mL]	IC50 at 72 h [7] [µg/mL]	MIC (Klebsiella pneumoniae [8]) [µg/mL]	MIC (Acinetobacter baumannii [9]) [µg/mL]
CC(C)CCCCC(=O)N[C@@H](CN)C(=O)N[C@H](C(=O)N[C@H](CO)C(=O)N[C@H]1CCNC(=O)[C@H]([C@@H](C)O)NC(=O)[C@H](CCN)NC(=O)[C@H](CCN)NC(=O)[C@H]([C@@H](C)O)NC(=O)[C@@H](Cc2ccccc2)NC(=O)[C@H](CCN)NC1=O)[C@@H](C)O ({Heptanoyl(6-Me)}-[Dap]T[dS][Dab][Dab][dF]T[Dab][Dab]T; lactam 4-C)	0.25 (≈ 0.217 µM)	≤ 0.03	0.5 (≈ 0.435 µM)	64 (≈ 55.6 µM)	4 (≈ 3.48 µM)	≤ 0.03	> 500	0.25 (≈ 0.217 µM)	0.25 (≈ 0.217 µM)
CC(C)CCCCC(=O)N[C@@H](CCN)C(=O)N[C@H](C(=O)N[C@@H](CCCCN)C(=O)N[C@H]1CCNC(=O)[C@H]([C@@H](C)O)NC(=O)[C@H](CCN)NC(=O)[C@H](CCN)NC(=O)[C@H]([C@@H](C)O)NC(=O)[C@@H](Cc2ccccc2)NC(=O)[C@H](CCN)NC1=O)[C@@H](C)O	2 (≈ 1.66 µM)	0.25 (≈ 0.207 µM)	0.25 (≈ 0.207 µM)	> 64	4 (≈ 3.32 µM)	0.25 (≈ 0.207 µM)	> 500	0.25 (≈ 0.207 µM)	1 (≈ 0.83 µM)
CC(C)CCCCC(=O)N[C@@H](CCN)C(=O)N[C@H](C(=O)N[C@H](CO)C(=O)N[C@H]1CCNC(=O)[C@H]([C@@H](C)O)NC(=O)[C@H](CCCN)NC(=O)[C@H](CCN)NC(=O)[C@H]([C@@H](C)O)NC(=O)[C@@H](Cc2ccccc2)NC(=O)[C@H](CCN)NC1=O)[C@@H](C)O ({Heptanoyl(6-Me)}-[Dab]T[dS][Dab][Dab][dF]T[Dab][Orn]T; lactam 4-C)	8 (≈ 6.79 µM)	0.25 (≈ 0.212 µM)	0.5 (≈ 0.424 µM)	> 64	> 64	0.25 (≈ 0.212 µM)	> 500	1 (≈ 0.849 µM)	8 (≈ 6.79 µM)
CC(C)CCCCC(=O)N[C@@H](CCN)C(=O)N[C@H](C(=O)N[C@H](CO)C(=O)N[C@H]1CCNC(=O)[C@H]([C@@H](C)O)NC(=O)[C@H](CCN)NC(=O)[C@H](CCN)NC(=O)[C@H]([C@@H](C)O)NC(=O)[C@@H](Cc2ccccc2)NC(=O)[C@H](CCCN)NC1=O)[C@@H](C)O ({Heptanoyl(6-Me)}-[Dab]T[dS][Dab][Orn][dF]T[Dab][Dab]T; lactam 4-C)	> 64	4 (≈ 3.39 µM)	64 (≈ 54.3 µM)	> 64	> 64	8 (≈ 6.79 µM)	> 500	8 (≈ 6.79 µM)	64 (≈ 54.3 µM)
